Results reported in patent US6838580B2, “Opioid derivative” (Teikoku Seiyaku Co., Ltd., priority 2002, dated 2005).
Marks after values point to notes of the source that are not given here.

Legend:
[1] = target: T1, μ-opioid receptor (Rattus norvegicus, UniProt P33535); test: Competitive receptor binding assay, synaptic membrane fraction, [3H]DAGO; details: for Ki: rat brain synaptic membrane, [3H]DAGO, read-out: Affinity of receptor (Ki, nM) μ; for Selectivity δ/μ: ratio Ki δ / Ki μ
T1 construct: synaptic membrane fraction obtained from the rat brain tissue; from tissue; host or cells: Sprague-Dawley rat brain without cerebellum, synaptic membrane (P2) fraction
T1 sequence (P33535 whole entry): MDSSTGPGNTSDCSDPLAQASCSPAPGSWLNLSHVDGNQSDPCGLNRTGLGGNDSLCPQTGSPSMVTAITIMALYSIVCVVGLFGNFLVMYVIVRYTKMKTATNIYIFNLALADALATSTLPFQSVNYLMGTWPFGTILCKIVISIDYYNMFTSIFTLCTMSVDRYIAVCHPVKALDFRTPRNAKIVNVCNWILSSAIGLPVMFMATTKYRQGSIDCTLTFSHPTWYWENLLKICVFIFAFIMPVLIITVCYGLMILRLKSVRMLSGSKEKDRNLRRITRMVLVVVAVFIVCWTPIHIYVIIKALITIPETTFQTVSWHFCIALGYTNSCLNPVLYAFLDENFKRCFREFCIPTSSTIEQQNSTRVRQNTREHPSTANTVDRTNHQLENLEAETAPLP
Protocol: (§1) Regarding the opioid peptide derivatives synthesized in Examples and Reference Examples, the μ- and δ-opioid receptor affinities were obtained by a competitive receptor assay using the synaptic membrane fraction obtained from the rat brain tissue according to the known methods. That is, Sprague-Dawley rats having an average weight of 150-180 g were killed by decapitation, the brain tissue from which cerebellum had been removed was homogenized in 0.32M sucrose and 1 mM HEPES (pH 7.5) containing 50 μg/ml soybean trypsin inhibitor, fractionated and centrifuged to obtain the synaptic membrane fraction (P2 fraction), which was pre-incubated in 50 mM HEPES (pH 7.5) containing 100 mM NaCl, 0.1 mM GDP and soybean trypsin inhibitor to remove endogenous ligands from the P2 fraction.
(§2) A competitive receptor binding assay (Radiolabeled receptor assay: RRA) based on an exchange reaction between a radioactive ligand for the synaptic membrane fraction and a peptide derivative to be tested was performed by using tritium-labeled [^3H]DAGO which is a μ-opioid receptor agonist and tritium-labeled [^3H]DPDPE which has the high δ-opioid receptor selectivity, and incubating an aliquot of the synaptic membrane with the peptide derivative to be tested for a period of time. Upon this, an exchange reaction between a ligand was performed under constant conditions, the radiation remaining in the synaptic membrane fraction was measured, and an amount of the ligand adsorbed onto the synaptic membrane fraction is calculated. By assuming that binding with a receptor occurs in competition between a radioactive ligand and an end ligand, the concentration (IC50) at which the maximum specific binding of the radioactive ligand is 50% inhibited was obtained, from which the affinity constant (Ki) was calculated by a method of Cheng et al. (Biochem. Pharmcol., 22, 3099(1973)).

[2] = target: T2, δ-opioid receptor (Rattus norvegicus, UniProt P33533); test: Competitive receptor binding assay, synaptic membrane fraction, [3H]DPDPE; details: rat brain synaptic membrane, read-out: Affinity of receptor (Ki, nM) δ
T2 construct: synaptic membrane fraction obtained from the rat brain tissue; from tissue; host or cells: Sprague-Dawley rat brain without cerebellum, synaptic membrane (P2) fraction
T2 sequence (P33533 whole entry): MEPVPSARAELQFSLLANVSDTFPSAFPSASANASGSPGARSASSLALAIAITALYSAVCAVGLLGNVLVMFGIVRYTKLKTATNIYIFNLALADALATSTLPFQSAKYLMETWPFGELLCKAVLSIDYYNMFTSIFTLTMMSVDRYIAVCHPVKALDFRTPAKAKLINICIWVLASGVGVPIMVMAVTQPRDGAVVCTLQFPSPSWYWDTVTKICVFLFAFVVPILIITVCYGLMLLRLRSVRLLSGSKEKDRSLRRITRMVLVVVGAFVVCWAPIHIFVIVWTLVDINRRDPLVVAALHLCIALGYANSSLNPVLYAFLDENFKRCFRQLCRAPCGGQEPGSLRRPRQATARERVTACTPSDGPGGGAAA
Protocol: as §1, §2

[3] = target: T3, δ-opioid receptor (Mus musculus, UniProt P32300); test: Mouse seminiferous tract (MVD) assay, inhibition of electrically stimulated constriction; type: cell-based; details: agonist activity, read-out: MVD (IC50 ± S.E.)
T3 construct: using mouse seminiferous tract in place of guinea pig ileum; from tissue; host or cells: mouse seminiferous tract (vas deferens, MVD), organ bath
T3 sequence (P32300 whole entry): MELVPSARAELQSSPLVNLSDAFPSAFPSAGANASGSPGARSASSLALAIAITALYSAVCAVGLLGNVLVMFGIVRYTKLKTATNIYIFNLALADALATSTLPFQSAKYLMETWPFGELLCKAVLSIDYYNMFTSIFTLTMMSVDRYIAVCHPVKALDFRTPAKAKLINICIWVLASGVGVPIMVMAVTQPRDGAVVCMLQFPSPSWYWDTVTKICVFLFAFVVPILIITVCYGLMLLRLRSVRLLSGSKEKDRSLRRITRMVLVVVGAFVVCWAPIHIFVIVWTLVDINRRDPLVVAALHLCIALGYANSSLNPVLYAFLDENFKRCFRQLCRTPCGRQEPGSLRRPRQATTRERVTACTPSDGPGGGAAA

[4] = tested on: SD Male rats; test: Analgesic effect, Randoll-Seritto hind limb pressure method, intracerebroventricular administration; type: in vivo; details: rat, i.c.v.
Source text: SD Male rats, weighing 110 to 130 g, were used. One group consisted of five rats. The analgesic effects were examined by a Randoll-Seritto method. […] The threshold was expressed in mm Hg. During the measurement, the upper limit of the pressure applied to a hind limb was 100 mm Hg in order to avoid damage of the tissues.
1) When performing intracerebroventricular administration (i.c.v.), a rat was fixed to a brain stereotactic fixing apparatus under slight ether anesthesia, the skin at a head was dissected, and an administration cannula was inserted into a place at a transverse of […] from a bregma position and a depth of 3.5 to 4.0 mm. The administration volume was 10 μl/animal. Observation of the analgesic action was performed before administration, and at 30 minutes, and 1, 2, 3, 4 and 5 hours after administration. Doses of both compounds were 0.1, 1 and 10 μg/animal. Separately, a group to which 5 mg/kg of naltrexone hydrochloride was administered subcutaneously immediately after compound of Ex.1 10 μg/animal i.c.v and a group to which 5 mg/kg of naltrexone hydrochloride was administered subcutaneously immediately after compound of Ex.4 10 μg/animal i.c.v. was made. In addition, as morphine hydrochloride at a dose of 3 μg/animal i.c.v. group was used as a positive control group and a physiological saline 10 μl/animal i.c.v. group as a control group was made, respectively.
In order to perform a significant difference test between respective administration groups and control groups, and between values at respective times before administration and after administration, a Dunnet multiple comparative test method was used. In the statistical processing for performing a significant difference test between morphine hydrochloride administration groups and control groups, Student t-test was used. For performing a significant difference test between values at respective times before administration and after administration in morphine hydrochloride administration groups, a Dunnet multiple comparative test method was used. A significant level was at 5 or lower % risk rate (two-tailed test).

[5] = 0.1 μg/animal, before administration
[6] = 1 μg/animal, before administration
[7] = 10 μg/animal + Naltrexon 5 mg/kg s.c., 0.5 hr
[8] = 10 μg/animal + Naltrexon 5 mg/kg s.c., 1 hr
[9] = 10 μg/animal + Naltrexon 5 mg/kg s.c., 2 hr
[10] = 10 μg/animal + Naltrexon 5 mg/kg s.c., 3 hr
[11] = 10 μg/animal + Naltrexon 5 mg/kg s.c., 4 hr
[12] = 10 μg/animal + Naltrexon 5 mg/kg s.c., 5 hr
[13] = 10 μg/animal + Naltrexon 5 mg/kg s.c., before administration
[14] = 10 μg/animal followed by naltrexone 5 mg/kg s.c.
[15] = 10 μg/animal, before administration

SMILES | Ki [1] | Selectivity δ/μ [1] | Ki [2] | IC50 [3] | Threshold (mmHg) ([4]; 0.1 μg/animal, 0.5 hr) | Threshold (mmHg) ([4]; 0.1 μg/animal, 1 hr) | Threshold (mmHg) ([4]; 0.1 μg/animal, 2 hr) | Threshold (mmHg) ([4]; 0.1 μg/animal, 3 hr) | Threshold (mmHg) ([4]; 0.1 μg/animal, 4 hr) | Threshold (mmHg) ([4]; 0.1 μg/animal, 5 hr) | Threshold (mmHg) [4, 5] | Threshold (mmHg) ([4]; 1 μg/animal, 0.5 hr) | Threshold (mmHg) ([4]; 1 μg/animal, 1 hr) | Threshold (mmHg) ([4]; 1 μg/animal, 2 hr) | Threshold (mmHg) ([4]; 1 μg/animal, 3 hr) | Threshold (mmHg) ([4]; 1 μg/animal, 4 hr) | Threshold (mmHg) ([4]; 1 μg/animal, 5 hr) | Threshold (mmHg) [4, 6] | Change in escape reaction threshold / analgesic effect, in words ([4]; 10 μg/animal) | Threshold (mmHg) [4, 7] | further results
Cc1cc(O)cc(C)c1C[C@H](N)C(=O)NCCCCNC(=O)[C@@H](N)Cc1c(C)cc(O)cc1C.Cl.Cl [Ex.1, 1,4-Bis-(Dmt-amino)butane.2HCl] | 0.041 ± 0.003 nM | 1300 | 53.4 ± 14.8 nM | > 10 µM | 47 ± 1 mmHg | 50 ± 2 mmHg | 50 ± 1 mmHg | 48 ± 2 mmHg | 48 ± 1 mmHg | 49 ± 1 mmHg | 47 ± 1 mmHg | 51 ± 3 mmHg | 54 ± 3 mmHg | 49 ± 1 mmHg | 49 ± 2 mmHg | 48 ± 2 mmHg | 47 ± 1 mmHg | 47 ± 2 mmHg | significant increase in the threshold was seen in the 10 μg/administration group 30 minutes and 1 hour after administration | 49 ± 1 mmHg | Threshold (mmHg) [4, 8]: 53 ± 3 mmHg; Threshold (mmHg) [4, 9]: 54 ± 2 mmHg; Threshold (mmHg) [4, 10]: 52 ± 2 mmHg; Threshold (mmHg) [4, 11]: 49 ± 1 mmHg; Threshold (mmHg) [4, 12]: 50 ± 1 mmHg; Threshold (mmHg) [4, 13]: 47 ± 2 mmHg; Change in escape reaction threshold / analgesic effect, in words [4, 14]: dissipated by naltrexone 5 mg/kg subcutaneous administration; Threshold (mmHg) ([4]; 10 μg/animal, 0.5 hr): 61 ± 8*^,$ mmHg; Threshold (mmHg) ([4]; 10 μg/animal, 1 hr): 61 ± 5**^,$ mmHg; Threshold (mmHg) ([4]; 10 μg/animal, 2 hr): 54 ± 4 mmHg; Threshold (mmHg) ([4]; 10 μg/animal, 3 hr): 51 ± 3 mmHg; Threshold (mmHg) ([4]; 10 μg/animal, 4 hr): 52 ± 2 mmHg; Threshold (mmHg) ([4]; 10 μg/animal, 5 hr): 52 ± 1 mmHg; Threshold (mmHg) [4, 15]: 48 ± 2 mmHg
Cc1cc(O)cc(C)c1C[C@H](N)C(=O)NCCCCCCNC(=O)[C@@H](N)Cc1c(C)cc(O)cc1C [Ex.4, 1,6-Bis(Dmt-amino)hexane.2HCl] | 0.053 ± 0.01 nM | 870 | 46.1 ± 8.8 nM | > 10 µM | 47 ± 2 mmHg | 47 ± 1 mmHg | 50 ± 2 mmHg | 49 ± 2 mmHg | 49 ± 2 mmHg | 47 ± 1 mmHg | 45 ± 2 mmHg | 51 ± 2 mmHg | 51 ± 2 mmHg | 51 ± 3 mmHg | 50 ± 2 mmHg | 53 ± 2*^,$ mmHg | 52 ± 1*^,$ mmHg | 46 ± 1 mmHg | significant change in the threshold was not seen at any time after administration | 55 ± 2*^,$ mmHg | Change in escape reaction threshold / analgesic effect, in words ([4]; 1 μg/animal): significant increase in the threshold was seen 4 hours and 5 hours after administration; Threshold (mmHg) [4, 8]: 52 ± 2*^,$ mmHg; Threshold (mmHg) [4, 9]: 51 ± 2 mmHg; Threshold (mmHg) [4, 10]: 51 ± 1 mmHg; Threshold (mmHg) [4, 11]: 52 ± 1*^,$ mmHg; Threshold (mmHg) [4, 12]: 50 ± 1 mmHg; Threshold (mmHg) [4, 13]: 46 ± 1 mmHg; Change in escape reaction threshold / analgesic effect, in words [4, 14]: significant increase in the threshold was seen 30 minutes, 1 hour and 4 hours after administration; Threshold (mmHg) ([4]; 10 μg/animal, 0.5 hr): 50 ± 2 mmHg; Threshold (mmHg) ([4]; 10 μg/animal, 1 hr): 47 ± 0 mmHg; Threshold (mmHg) ([4]; 10 μg/animal, 2 hr): 49 ± 2 mmHg; Threshold (mmHg) ([4]; 10 μg/animal, 3 hr): 48 ± 2 mmHg; Threshold (mmHg) ([4]; 10 μg/animal, 4 hr): 48 ± 2 mmHg; Threshold (mmHg) ([4]; 10 μg/animal, 5 hr): 49 ± 1 mmHg; Threshold (mmHg) [4, 15]: 46 ± 1 mmHg
